Results reported in patent US7847065B2, “CXADRL1 polypeptides relating to human cancers” (Oncotherapy Science, Inc., priority 2002, dated 2010).
Like-named read-outs stand apart in the source and are kept apart here. Ends that are not written are not given here. Peptide text beside a SMILES is read from it.

Columns and labels:
[1] = test system: T2 cells (HLA-A*0201)
Experimental: (§3) Target cells were labeled with 100 μCi of Na2^51CrO4 (Perkin Elmer Life Sciences) for 1 h at 37° C. in a CO2 incubator. When peptide-pulsed targets were used, target cells were incubated with the addition of 20 μg/ml of the peptide for 16 h at 37° C. before the labeling with Na2^51CrO4. Target cells were rinsed and mixed with effectors at a final volume of 0.2 ml in round-bottom microtiter plates. The plates were centrifuged (4 minutes at 800×g) to increase cell-to-cell contact and placed in a CO2 incubator at 37° C. After 4 h of incubation, 0.1 ml of the supernatant was collected from each well and the radioactivity was determined with a gamma counter. In case of evaluating cytotoxicity against target cells that endogenously express RNF43, CXADRL1, or GCUD1, the cytolytic activity was tested in the presence of a 30-fold excess of unlabeled K562 cells to reduce any non-specific lysis due to NK-like effectors. […] The MHC restriction was examined by blocking assay, measuring the inhibition of the cytotoxicity with anti-HLA-class I (W6/32) antibody and anti-HLA-class II antibody, or anti-CD4 antibody and anti-CD8 antibody (DAKO).
(§4) The percentage of specific cytotoxicity was determined by calculating the percentage of specific ^51Cr-release by the following formula: {(cpm of the test sample release−cpm of the spontaneous release)/(cpm of the maximum release−cpm of the spontaneous release)}×100. Spontaneous release was determined by incubating the target cells alone in the absence of effectors, and the maximum release was obtained by incubating the targets with 1N HCl. All determinants were done in duplicate, and the standard errors of the means were consistently below 10% of the value of the mean.

[2] = test system: TISI cells (HLA-A24/24)
Experimental: as §3, §4

[3] = test system: MKN74; assay: Cytotoxicity of CTL clone against tumor cell line MKN74; assay type: cell-based, human; conditions: expresses CXADRL1 but not HLA-A*0201
Experimental: (§5) Target cells were labeled with 100 μCi of Na2^51CrO4 (Perkin Elmer Life Sciences) for 1 h at 37° C. in a CO2 incubator. When peptide-pulsed targets were used, target cells were incubated with the addition of 20 μg/ml of the peptide for 16 h at 37° C. before the labeling with Na2^51CrO4. Target cells were rinsed and mixed with effectors at a final volume of 0.2 ml in round-bottom microtiter plates. The plates were centrifuged (4 minutes at 800×g) to increase cell-to-cell contact and placed in a CO2 incubator at 37° C. After 4 h of incubation, 0.1 ml of the supernatant was collected from each well and the radioactivity was determined with a gamma counter. In case of evaluating cytotoxicity against target cells that endogenously express RNF43, CXADRL1, or GCUD1, the cytolytic activity was tested in the presence of a 30-fold excess of unlabeled K562 cells to reduce any non-specific lysis due to NK-like effectors. […]
(§6) The percentage of specific cytotoxicity was determined by calculating the percentage of specific ^51Cr-release by the following formula: {(cpm of the test sample release−cpm of the spontaneous release)/(cpm of the maximum release−cpm of the spontaneous release)}×100. Spontaneous release was determined by incubating the target cells alone in the absence of effectors, and the maximum release was obtained by incubating the targets with 1N HCl. […]

[4] = test system: SNU475; assay: Cytotoxicity of CTLs against tumor cell line SNU475; assay type: cell-based, human; conditions: SNU475 expresses CXADRL1, GCUD1 and HLA-A*0201
Experimental: as §3, §4

[5] = test system: SNU475 cells; assay: Blocking assay with antibodies, target SNU475; assay type: cell-based, human
Experimental: as §3

[6] = test system: T2 cells (HLA-A*0201); assay: 51Cr-release cytotoxicity assay of peptide-induced CTLs on T2 cells; conditions: for Cytotoxic activity of peptide-induced CTL line/clone on non-pulsed target: T2 not pulsed with any peptide; for Cytotoxic activity of peptide-induced CTL line/clone on peptide-pulsed target: T2 pulsed with the peptide
Experimental: as §3, §4

[7] = test system: SNU-C4; assay: Cytotoxicity of CTL clone against tumor cell line SNU-C4; conditions: HLA-A*0201 but not CXADRL1; RNF43 but little HLA-A24
Experimental: as §5, §6

[8] = test system: HT29
Experimental: as §3, §4

[9] = test system: DLD-1
Experimental: as §5, §6

[10] = test system: MKN-28 cells; assay: MTT assay after transfection of S-oligonucleotides, MKN-28; assay type: cell-based, human; conditions: six days after transfection
Experimental: (§1) Cells plated onto 10-cm dishes (2×10^5 cells/dish) were transfected either with plasmid, or synthetic S-oligonucleotides of CXADRL1, GCUD1, or RNF43 using LIPOFECTIN Reagent (GIBCO BRL). Then the cells were cultured with the addition of an appropriate concentration of geneticin for six to twelve days. The cells were then fixed with 100% methanol and stained by Giemsa solution. Sequences of the S-oligonucleotides were as follows:
(§2) Cells plated at a density of 5×10^5 cells/100 mm dish were transfected in triplicate with sense or antisense S-oligonucleotides designated to suppress the expression of CXADRL1, GCUD1, or RNF43. […] Subsequently, the cells were lysed by the addition of 1 ml of 0.01 N HCl/10% SDS and the absorbance of lysates was measured with ELISA plate reader at a test wavelength of 570 nm (reference, 630 nm). The cell viability was represented by the absorbance compared to that of control cells.

[11] = test system: MKN45; assay: Cytotoxicity of CTL clone against tumor cell line MKN45; assay type: cell-based, human; conditions: expresses GCUD1 but not HLA-A*0201
Experimental: as §5, §6

[12] = test system: MKN-1 gastric cancer cells; assay: MTT assay after transfection of S-oligonucleotides, MKN-1; assay type: cell-based, human; conditions: MKN-1 cells, six days after transfection
Experimental: as §1, §2

## WLHQHRTCPL [RNF43-302, WLHQHRTCPL]
[1]
  Cytotoxicity(%) ×2 Pep(+): 1.5%
  Cytotoxicity(%) ×2 Pep(−): 2.2%
  Cytotoxicity(%) ×20 Pep(+): 7.4%
  Cytotoxicity(%) ×20 Pep(−): 6.1%

## HYTPSVAYPW [RNF43-683, HYTPSVAYPW]
[2]
  Cytotoxicity of CTL lines (10mer) ×2 Pep(+): 0%
  Cytotoxicity of CTL lines (10mer) ×2 Pep(−): −1%
  Cytotoxicity of CTL lines (10mer) ×20 Pep(+): 0%
  Cytotoxicity of CTL lines (10mer) ×20 Pep(−): 0%

## SYCTERSGYL [RNF43-449, SYCTERSGYL]
[2]
  Cytotoxicity of CTL lines (10mer) ×2 Pep(+): 0%
  Cytotoxicity of CTL lines (10mer) ×2 Pep(−): 0%
  Cytotoxicity of CTL lines (10mer) ×20 Pep(+): 1%
  Cytotoxicity of CTL lines (10mer) ×20 Pep(−): 1%

## RAPGEQQRL [RNF43-397, RAPGEQQRL]
[2]
  Cytotoxicity of CTL lines (9mer) ×2 Pep(+): 15%
  Cytotoxicity of CTL lines (9mer) ×2 Pep(−): 15%
  Cytotoxicity of CTL lines (9mer) ×20 Pep(+): 41%
  Cytotoxicity of CTL lines (9mer) ×20 Pep(−): 32%

## ALSSGLYQC [CXADRL1-207, ALSSGLYQC]
[3]
  Cytotoxic activity of CTL clone against MKN74: not against
[4]
  Cytotoxic activity of peptide-induced CTLs against SNU475: potent cytotoxic activity
[5]
  Cytotoxicity of CTL clone against SNU475 with anti-HLA-Class I antibody and anti-CD8 antibody: significantly inhibited
[6]
  Cytotoxic activity of peptide-induced CTL line/clone on non-pulsed target: without showing any cytotoxic activity
  Cytotoxic activity of peptide-induced CTL line/clone on peptide-pulsed target: very potent cytotoxic activity
[7]
  Cytotoxic activity of CTL clone against SNU-C4: not against

## RYQASCRQA [RNF43-247, RYQASCRQA]
[2]
  Cytotoxicity of CTL lines (9mer) ×2 Pep(+): 28%
  Cytotoxicity of CTL lines (9mer) ×2 Pep(−): 16%
  Cytotoxicity of CTL lines (9mer) ×20 Pep(+): 71%
  Cytotoxicity of CTL lines (9mer) ×20 Pep(−): 82%

## ALWPWLLMAT [RNF43-11, ALWPWLLMAT]
[1]
  Cytotoxic activity of peptide-induced CTL line/clone on peptide-pulsed target: higher cytotoxic activity
[8]
  Cytotoxic activity of CTL clone on HT29: no significant cytotoxic activity
[9]
  Cytotoxic activity of CTL clone on DLD-1: high cytotoxic activity

## YLLGPSRSAV [RNF43-357, YLLGPSRSAV]
[1]
  Cytotoxicity(%) ×2 Pep(+): 3.7%
  Cytotoxicity(%) ×2 Pep(−): 3.0%
  Cytotoxicity(%) ×20 Pep(+): 18.2%
  Cytotoxicity(%) ×20 Pep(−): 15.4%

## ALWPWLLMA [RNF43-11, ALWPWLLMA]
[8]
  Cytotoxic activity of CTL clone on HT29: no significant cytotoxic activity
[9]
  Cytotoxic activity of CTL clone on DLD-1: high cytotoxic activity

## ALSSGLYQV [CXADRL1-9V, ALSSGLYQV]
[4]
  Cytotoxic activity of peptide-induced CTLs against SNU475: killed

## 5′-CGGCTTACCTCAACCT-3′ (phosphorothioate, further chemistry not given here) [GCUD1-AS8, antisense S-oligonucleotide]
[10]
  Viable cells (MTT assay) compared with control S-oligonucleotides: markedly fewer

## KMDPTGKLNL [RNF43-54, KMDPTGKLNL]
[2]
  Cytotoxic activity of peptide-induced CTL line/clone on peptide-pulsed target: modest cytotoxic activity
  Cytotoxicity of CTL lines (10mer) ×2 Pep(+): 0%
  Cytotoxicity of CTL lines (10mer) ×2 Pep(−): −1%
  Cytotoxicity of CTL lines (10mer) ×20 Pep(+): 5%
  Cytotoxicity of CTL lines (10mer) ×20 Pep(−): 2%

## KMDAEHPEL [GCUD1-196, KMDAEHPEL]
[11]
  Cytotoxic activity of CTL clone against MKN45: not against
[4]
  Cytotoxic activity of peptide-induced CTLs against SNU475: potent cytotoxic activity
[5]
  Cytotoxicity of CTL clone against SNU475 with anti-HLA-Class I antibody and anti-CD8 antibody: significantly inhibited
[6]
  Cytotoxic activity of peptide-induced CTL line/clone on non-pulsed target: without showing any cytotoxic activity
  Cytotoxic activity of peptide-induced CTL line/clone on peptide-pulsed target: very potent cytotoxic activity

## LLGPSRSAV [RNF43-358, LLGPSRSAV]
[1]
  Cytotoxicity(%) ×2 Pep(+): 0.0%
  Cytotoxicity(%) ×2 Pep(−): −0.8%
  Cytotoxicity(%) ×20 Pep(+): −0.4%
  Cytotoxicity(%) ×20 Pep(−): −0.7%

## WLLMATLQA [RNF43-15, WLLMATLQA]
[1]
  Cytotoxicity(%) ×2 Pep(+): −0.4%
  Cytotoxicity(%) ×2 Pep(−): −0.9%
  Cytotoxicity(%) ×20 Pep(+): −0.2%
  Cytotoxicity(%) ×20 Pep(−): 0.0%

## RPPRPGPFL [RNF43-368, RPPRPGPFL]
[2]
  Cytotoxicity of CTL lines (9mer) ×2 Pep(+): 0%
  Cytotoxicity of CTL lines (9mer) ×2 Pep(−): 0%
  Cytotoxicity of CTL lines (9mer) ×20 Pep(+): 1%
  Cytotoxicity of CTL lines (9mer) ×20 Pep(−): 0%

## LMQSHPLYL [RNF43-82, LMQSHPLYL]
[1]
  Cytotoxicity(%) ×2 Pep(+): 0.0%
  Cytotoxicity(%) ×2 Pep(−): −0.4%
  Cytotoxicity(%) ×20 Pep(+): 1.7%
  Cytotoxicity(%) ×20 Pep(−): 1.2%

## KMDAEHPEV [GCUD1-9V, KMDAEHPEV]
[4]
  Cytotoxic activity of peptide-induced CTLs against SNU475: killed

## KLMQSHPLYL [RNF43-81, KLMQSHPLYL]
[2]
  Cytotoxic activity of peptide-induced CTL line/clone on peptide-pulsed target: modest cytotoxic activity
  Cytotoxicity of CTL lines (10mer) ×2 Pep(+): 2%
  Cytotoxicity of CTL lines (10mer) ×2 Pep(−): −3%
  Cytotoxicity of CTL lines (10mer) ×20 Pep(+): 10%
  Cytotoxicity of CTL lines (10mer) ×20 Pep(−): 5%
[1]
  Cytotoxicity(%) ×2 Pep(+): 6.3%
  Cytotoxicity(%) ×2 Pep(−): 8.3%
  Cytotoxicity(%) ×20 Pep(+): 18.0%
  Cytotoxicity(%) ×20 Pep(−): 27.6%

## LFNLQKSSL [RNF43-639, LFNLQKSSL]
[2]
  Cytotoxic activity of peptide-induced CTL line/clone on peptide-pulsed target: higher cytotoxic activities
  Cytotoxicity of CTL lines (9mer) ×2 Pep(+): 7%
  Cytotoxicity of CTL lines (9mer) ×2 Pep(−): 5%
  Cytotoxicity of CTL lines (9mer) ×20 Pep(+): 42%
  Cytotoxicity of CTL lines (9mer) ×20 Pep(−): 33%

## 5′-TGCAACACCTACAGAA-3′ (phosphorothioate, further chemistry not given here) [CXADRL1-AS5, antisense S-oligonucleotide]
[12]
  Viable cells (MTT assay) compared with control S-oligonucleotides: markedly fewer

## RAPRPCLSL [RNF43-114, RAPRPCLSL]
[2]
  Cytotoxicity of CTL lines (9mer) ×2 Pep(+): 6%
  Cytotoxicity of CTL lines (9mer) ×2 Pep(−): 9%
  Cytotoxicity of CTL lines (9mer) ×20 Pep(+): 23%
  Cytotoxicity of CTL lines (9mer) ×20 Pep(−): 26%

## 5′-CTACTCACCGTGCAGA-3′ (phosphorothioate, further chemistry not given here) [CXADRL1-AS4, antisense S-oligonucleotide]
[12]
  Viable cells (MTT assay) compared with control S-oligonucleotides: markedly fewer

## FLTTASGVSV [GCUD1-272, FLTTASGVSV]
[6]
  Cytotoxic activity of peptide-induced CTL line/clone on non-pulsed target: without showing any cytotoxic activity
  Cytotoxic activity of peptide-induced CTL line/clone on peptide-pulsed target: very potent cytotoxic activity

## KLNLTLEGV [RNF43-60, KLNLTLEGV]
[1]
  Cytotoxicity(%) ×2 Pep(+): −1.6%
  Cytotoxicity(%) ×2 Pep(−): 0.0%
  Cytotoxicity(%) ×20 Pep(+): −2.1%
  Cytotoxicity(%) ×20 Pep(−): 0.2%

## CC(C)C[C@H](NC(=O)[C@@H](N)CS)C(=O)N[C@@H](Cc1c[nH]cn1)C(=O)N[C@@H](CCC(=O)O)C(=O)N[C@@H](Cc1ccccc1)C(=O)N[C@@H](Cc1c[nH]cn1)C(=O)N[C@@H](CCCNC(=N)N)C(=O)N[C@@H](CC(N)=O)C(=O)N[C@@H](CS)C(=O)N[C@H](C(=O)O)C(C)C [RNF43-290, CLHEFHRNCV] (H-CLHEFHRNCV-OH)
[1]
  Cytotoxicity(%) ×2 Pep(+): 2.7%
  Cytotoxicity(%) ×2 Pep(−): 3.7%
  Cytotoxicity(%) ×20 Pep(+): 9.6%
  Cytotoxicity(%) ×20 Pep(−): 9.7%

## GLTWPVVLI [RNF43-156, GLTWPVVLI]
[1]
  Cytotoxicity(%) ×2 Pep(+): −0.5%
  Cytotoxicity(%) ×2 Pep(−): −0.3%
  Cytotoxicity(%) ×20 Pep(+): −0.4%
  Cytotoxicity(%) ×20 Pep(−): 0.7%

## TFCSSLSSDF [RNF43-496, TFCSSLSSDF]
[2]
  Cytotoxicity of CTL lines (10mer) ×2 Pep(+): 0%
  Cytotoxicity of CTL lines (10mer) ×2 Pep(−): 0%
  Cytotoxicity of CTL lines (10mer) ×20 Pep(+): 8%
  Cytotoxicity of CTL lines (10mer) ×20 Pep(−): 9%

## GFGRTGLVL [RNF43-24, GFGRTGLVL]
[2]
  Cytotoxicity of CTL lines (9mer) ×2 Pep(+): 1%
  Cytotoxicity of CTL lines (9mer) ×2 Pep(−): 2%
  Cytotoxicity of CTL lines (9mer) ×20 Pep(+): 8%
  Cytotoxicity of CTL lines (9mer) ×20 Pep(−): 9%

## 5′-CAGCCATCCTGAAAAG-3′ (phosphorothioate, further chemistry not given here) [GCUD1-AS5, antisense S-oligonucleotide]
[10]
  Viable cells (MTT assay) compared with control S-oligonucleotides: markedly fewer

## SYQEPGRRL [RNF43-331, SYQEPGRRL]
[2]
  Cytotoxicity of CTL lines (9mer) ×2 Pep(+): 0%
  Cytotoxicity of CTL lines (9mer) ×2 Pep(−): 0%
  Cytotoxicity of CTL lines (9mer) ×20 Pep(+): 2%
  Cytotoxicity of CTL lines (9mer) ×20 Pep(−): 1%

## KLMEFVYKN [RNF43-171, KLMEFVYKN]
[1]
  Cytotoxicity(%) ×2 Pep(+): 1.1%
  Cytotoxicity(%) ×2 Pep(−): −0.5%
  Cytotoxicity(%) ×20 Pep(+): 2.6%
  Cytotoxicity(%) ×20 Pep(−): 0.0%
